Results as given in PMC12226389, “Icariin interacts with IGFBP3 to alleviate diabetic cataract through PI3K/AKT signaling pathway” (iScience, 2025).

Molecular target: T1, IGFBP3 (Homo sapiens, UniProt P17936)
T1 construct: protein immobilised on CM5 chip
Experiment: SPR (Biacore T200, CM5 chip, immobilised IGFBP3)
Type: binding

T1 sequence (P17936 28-291): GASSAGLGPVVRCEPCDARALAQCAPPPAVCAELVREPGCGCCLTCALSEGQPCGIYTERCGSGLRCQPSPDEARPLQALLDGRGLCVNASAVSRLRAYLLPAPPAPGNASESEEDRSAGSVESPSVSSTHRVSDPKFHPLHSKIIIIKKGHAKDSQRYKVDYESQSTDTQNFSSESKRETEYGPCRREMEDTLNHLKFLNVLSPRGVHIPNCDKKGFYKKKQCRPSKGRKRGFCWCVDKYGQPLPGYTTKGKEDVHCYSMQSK

- Kd: 131 µM
Compound: COc1ccc(-c2oc3c(CC=C(C)C)c(O[C@@H]4O[C@H](CO)[C@@H](O)[C@H](O)[C@H]4O)cc(O)c3c(=O)c2O[C@@H]2O[C@@H](C)[C@H](O)[C@@H](O)[C@H]2O)cc1 [Icariin]
